# Assay results published in PubChem BioAssay AID328 (DTP/NCI, 2004).
# Several values for one entry are separate records, joined by “and”; a condition that tells them apart may be missing. Identical values can stand only once. Inconclusive results and toxic doses are left out.
# Tested on: BDF1 mice, P388 leukemia ip, median survival T/C
# Test: NCI In Vivo Anticancer Drug Screen. Data for tumor model P388 Leukemia (intraperitoneal) in B6D2F1 (BDF1) mice
# Settings: endpoint: median survival time, higher = longer survival
# Summary of the method: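 T/C = treated-group survival ÷ vehicle-control survival; tumour transplanted into mice before dosing.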
# [1] = dose: 100.0 mg/kg/injection, schedule: Q04DX003 (ip), vehicle: saline with Tween-80
# [2] = dose: 200.0 mg/kg/injection, schedule: Q04DX003 (ip), vehicle: saline with Tween-80
# [3] = dose: 400.0 mg/kg/injection, schedule: Q04DX003 (ip), vehicle: saline with Tween-80
# [4] = dose: 100.0 mg/kg/injection, schedule: Q01DX001 (ip), vehicle: saline with Tween-80
# [5] = dose: 200.0 mg/kg/injection, schedule: Q01DX001 (ip), vehicle: saline with Tween-80
# [6] = dose: 100.0 mg/kg/injection, schedule: Q04DX003 (ip), vehicle: Klucel (hydroxypropylcellulose) (HPC)
# [7] = dose: 200.0 mg/kg/injection, schedule: Q01DX009 (ip), vehicle: Klucel (hydroxypropylcellulose) (HPC)
# [8] = dose: 200.0 mg/kg/injection, schedule: Q04DX003 (ip), vehicle: Klucel (hydroxypropylcellulose) (HPC)
# [9] = dose: 400.0 mg/kg/injection, schedule: Q01DX009 (ip), vehicle: Klucel (hydroxypropylcellulose) (HPC)
# [10] = dose: 400.0 mg/kg/injection, schedule: Q04DX003 (ip), vehicle: Klucel (hydroxypropylcellulose) (HPC)
# [11] = dose: 50.0 mg/kg/injection, schedule: Q01DX009 (ip), vehicle: saline
# [12] = dose: 25.0 mg/kg/injection, schedule: Q01DX009 (ip), vehicle: saline with Tween-80
# [13] = dose: 50.0 mg/kg/injection, schedule: Q01DX009 (ip), vehicle: saline with Tween-80
smiles,measurement,setting,value
O=NN(CCCl)C(=O)Nc1cc(NC(=O)N(CCCl)N=O)cc(C(=O)O)c1,T/C,"dose: 0.03 mg/kg/injection, schedule: Q04DX003 (ip), vehicle: saline with Tween-80",116 % of control
same,T/C,"dose: 0.06 mg/kg/injection, schedule: Q04DX003 (ip), vehicle: saline with Tween-80",120 % of control and 122 % of control
same,T/C,"dose: 0.5 mg/kg/injection, schedule: Q04DX003 (ip), vehicle: saline with Tween-80",150 % of control
same,T/C,"dose: 0.6 mg/kg/injection, schedule: Q04DX003 (ip), vehicle: saline with Tween-80",163 % of control
same,T/C,"dose: 1.0 mg/kg/injection, schedule: Q04DX003 (ip), vehicle: saline with Tween-80",170 % of control
same,T/C,"dose: 1.8 mg/kg/injection, schedule: Q04DX003 (ip), vehicle: saline with Tween-80",195 % of control
same,T/C,"dose: 2.0 mg/kg/injection, schedule: Q04DX003 (ip), vehicle: saline with Tween-80",200 % of control
same,T/C,"dose: 2.3 mg/kg/injection, schedule: Q04DX003 (ip), vehicle: saline with Tween-80",215 % of control
same,T/C,"dose: 2.5 mg/kg/injection, schedule: Q04DX003 (ip), vehicle: saline with Tween-80",195 % of control
same,T/C,"dose: 3.5 mg/kg/injection, schedule: Q04DX003 (ip), vehicle: saline with Tween-80",265 % of control
same,T/C,"dose: 3.7 mg/kg/injection, schedule: Q04DX003 (ip), vehicle: saline with Tween-80",186 % of control
same,T/C,"dose: 5.5 mg/kg/injection, schedule: Q04DX003 (ip), vehicle: saline with Tween-80",235 % of control
same,T/C,"dose: 6.0 mg/kg/injection, schedule: Q04DX003 (ip), vehicle: saline with Tween-80",222 % of control
same,T/C,"dose: 8.5 mg/kg/injection, schedule: Q04DX003 (ip), vehicle: saline with Tween-80",275 % of control
same,T/C,"dose: 13.0 mg/kg/injection, schedule: Q04DX003 (ip), vehicle: saline with Tween-80",250 % of control and 300 % of control
same,T/C,"dose: 18.0 mg/kg/injection, schedule: Q04DX003 (ip), vehicle: saline with Tween-80",272 % of control
same,T/C,"dose: 20.0 mg/kg/injection, schedule: Q04DX003 (ip), vehicle: saline with Tween-80",272 % of control and 300 % of control and 218 % of control
same,T/C,"dose: 30.0 mg/kg/injection, schedule: Q04DX003 (ip), vehicle: saline with Tween-80",235 % of control and 272 % of control
same,T/C,"dose: 45.0 mg/kg/injection, schedule: Q04DX003 (ip), vehicle: saline with Tween-80",95 % of control
N#C/C(=C\c1cc(Cl)cc(Cl)c1O)C(/C(C#N)=C/c1cc(Cl)cc(Cl)c1O)c1ccc2c(c1)OCO2 (stereo not given),T/C,[1],91 % of control
same,T/C,[2],100 % of control
same,T/C,[3],108 % of control
O=C(OC1(c2ccccc2)CCC1)c1cc([N+](=O)[O-])cc([N+](=O)[O-])c1,T/C,[4],97 % of control
same,T/C,[5],96 % of control
same,T/C,"dose: 400.0 mg/kg/injection, schedule: Q01DX001 (ip), vehicle: saline with Tween-80",99 % of control
COc1cc([N+](=O)[O-])c2c(ccc[n+]2C)c1OC,T/C,"dose: 50.0 mg/kg/injection, schedule: Q01DX001 (ip), vehicle: saline with Tween-80",100 % of control
same,T/C,[4],91 % of control
same,T/C,[5],112 % of control
NCc1cc(=O)[nH]o1,T/C,"dose: 2.5 mg/kg/injection, schedule: Q01DX005 (ip), vehicle: saline",98 % of control
same,T/C,"dose: 5.0 mg/kg/injection, schedule: Q01DX005 (ip), vehicle: saline",106 % of control
COc1ccc(OC)c([N+](=O)[O-])c1,T/C,[6],100 % of control
same,T/C,[7],95 % of control
same,T/C,[8],95 % of control
same,T/C,[9],90 % of control
same,T/C,[10],100 % of control
CN1CCc2cc3c(cc2/C1=C1\OC(=O)c2c1ccc1c2OCO1)OCO3,T/C,[1],88 % of control
same,T/C,[2],93 % of control
same,T/C,[3],101 % of control
CCCOc1cc([N+](=O)[O-])cc([N+](=O)[O-])c1,T/C,[4],104 % of control
same,T/C,[5],94 % of control
O=C(O)CNC(=O)/C(=C\c1[nH]c(=O)[nH]c(=O)c1Br)NC(=O)c1ccccc1,T/C,[1],90 % of control
same,T/C,[2],104 % of control
same,T/C,[3],100 % of control
Nc1ccccc1SC1CC(=O)N(c2ccccc2)C1=O (stereo not given),T/C,"dose: 100.0 mg/kg/injection, schedule: Q01DX001 (ip), vehicle: Klucel (hydroxypropylcellulose) (HPC)",100 % of control
same,T/C,"dose: 100.0 mg/kg/injection, schedule: Q01DX009 (ip), vehicle: Klucel (hydroxypropylcellulose) (HPC)",116 % of control
same,T/C,[6],100 % of control
same,T/C,"dose: 200.0 mg/kg/injection, schedule: Q01DX001 (ip), vehicle: Klucel (hydroxypropylcellulose) (HPC)",95 % of control
same,T/C,[7],122 % of control
same,T/C,[8],95 % of control
same,T/C,"dose: 400.0 mg/kg/injection, schedule: Q01DX001 (ip), vehicle: Klucel (hydroxypropylcellulose) (HPC)",95 % of control
same,T/C,[9],105 % of control
same,T/C,[10],95 % of control
O=C(O)CC[n+]1c(/C=C/c2cc(Br)c(O)c(Br)c2)sc2ccccc21,T/C,"dose: 50.0 mg/kg/injection, schedule: Q04DX003 (ip), vehicle: saline sonified",100 % of control
same,T/C,"dose: 100.0 mg/kg/injection, schedule: Q04DX003 (ip), vehicle: saline sonified",100 % of control
same,T/C,"dose: 200.0 mg/kg/injection, schedule: Q04DX003 (ip), vehicle: saline sonified",100 % of control
CC(C)(C)OC(=O)NC(Cc1cncn1Cc1ccccc1)C(=O)NC(Cc1c[nH]c2ccccc12)C(=O)OCc1ccccc1 (stereo not given),T/C,"dose: 50.0 mg/kg/injection, schedule: Q04DX003 (ip), vehicle: saline",105 % of control
same,T/C,"dose: 100.0 mg/kg/injection, schedule: Q04DX003 (ip), vehicle: saline",106 % of control
same,T/C,"dose: 200.0 mg/kg/injection, schedule: Q04DX003 (ip), vehicle: saline",102 % of control
same,T/C,"dose: 400.0 mg/kg/injection, schedule: Q04DX003 (ip), vehicle: saline",100 % of control
COc1cc([C@@H]2c3cc4c(cc3C[C@H]3COC(=O)[C@@H]32)OCO4)cc(OC)c1OC,T/C,"dose: 1.25 mg/kg/injection, schedule: Q01DX010 (ip), vehicle: saline",109 % of control
same,T/C,"dose: 2.5 mg/kg/injection, schedule: Q01DX001 (ip), vehicle: other",105 % of control
same,T/C,"dose: 2.5 mg/kg/injection, schedule: Q01DX010 (ip), vehicle: saline",118 % of control
same,T/C,"dose: 5.0 mg/kg/injection, schedule: Q01DX001 (ip), vehicle: other",115 % of control
same,T/C,"dose: 10.0 mg/kg/injection, schedule: Q01DX010 (ip), vehicle: other",154 % of control
same,T/C,"dose: 20.0 mg/kg/injection, schedule: Q01DX010 (ip), vehicle: other",95 % of control
CC(/C=C/c1ccccc1)=N\NC(=O)CN(C)C,T/C,[11],94 % of control
same,T/C,"dose: 100.0 mg/kg/injection, schedule: Q01DX009 (ip), vehicle: saline",97 % of control
O=C(Nc1ccccc1)C1=C(Nc2ccccc2)CSC1,T/C,[12],100 % of control
same,T/C,"dose: 25.0 mg/kg/injection, schedule: Q04DX003 (ip), vehicle: saline with Tween-80",99 % of control
same,T/C,[13],91 % of control
same,T/C,"dose: 50.0 mg/kg/injection, schedule: Q04DX003 (ip), vehicle: saline with Tween-80",99 % of control
same,T/C,"dose: 100.0 mg/kg/injection, schedule: Q01DX009 (ip), vehicle: saline with Tween-80",94 % of control
same,T/C,[1],96 % of control
same,T/C,"dose: 200.0 mg/kg/injection, schedule: Q01DX009 (ip), vehicle: saline with Tween-80",102 % of control
same,T/C,[2],105 % of control
same,T/C,"dose: 400.0 mg/kg/injection, schedule: Q01DX009 (ip), vehicle: saline with Tween-80",110 % of control
same,T/C,[3],103 % of control
O=C(NO)c1cccnc1,T/C,"dose: 300.0 mg/kg/injection, schedule: Q01DX010 (ip), vehicle: water",119 % of control
same,T/C,"dose: 400.0 mg/kg/injection, schedule: Q01DX010 (ip), vehicle: water",109 % of control and 118 % of control
same,T/C,"dose: 600.0 mg/kg/injection, schedule: Q01DX010 (ip), vehicle: water",150 % of control and 154 % of control
CN(C)c1cc(=O)c2c(ccc3ccccc32)o1,T/C,"dose: 6.25 mg/kg/injection, schedule: Q01DX009 (ip), vehicle: saline with Tween-80",117 % of control
same,T/C,"dose: 12.5 mg/kg/injection, schedule: Q01DX009 (ip), vehicle: saline with Tween-80",97 % of control
same,T/C,[12],106 % of control
same,T/C,[13],106 % of control
OCCNCCNCC[OH2+].OCCNCCNCC[OH2+].[Ni+2].[O-][Cl+3]([O-])([O-])[O-],T/C,[11],92 % of control
